Data taken from patent US11214772B2, “Production method for retinal tissue” (SUMITOMO DAINIPPON PHARMA CO., LTD., priority 2014, dated 2022).

B1: BMP4: human recombinant BMP4 (manufactured by R&D), BMP signal transduction pathway activating substance (protein, UniProt P12644 293-408, looked up)
Bone morphogenetic protein 4: SPKHHSQRARKKNKNCRRHSLYVDFSDVGWNDWIVAPPGYQAFYCHGDCPFPLADHLNSTNHAIVQTLVNSVNSSIPKACCVPTELSAISMLYLDEYDKVVLKNYQEMVVEGCGCR

Assays:
Assay type in all cases: cell-based
[1] = test system: human iPS cells (1231A3 strain); assay: Immunostaining of aggregate cryosections for retinal tissue markers Chx10 and Rx; conditions: Example 7, BMP4 1.5 nM day 3, day 18
Source text: The above cell aggregates on day 19 after the start of suspension culturing were each fixed with 4% para-formaldehyde to give cryosections. These cryosections were immunostained for Chx10 (anti-Chx10 antibody, manufactured by Exalpha, sheep), which is one of the retinal tissue markers, or Rx (anti-Rx antibody, manufactured by TAKARA, guinea pig), which is one of the retinal tissue markers. In judgment of whether the above marker is positive in the immunostaining analysis, a fluorescence intensity which is not less than 2 times higher than that of the background was taken as positive.
The thus-prepared cell aggregates on day 18 after the start of suspension culturing, which were produced by adding SAG in step 2 from feeder-free iPS cells as a starting material, were fixed with 4% para-formaldehyde to produce frozen sections. These frozen sections were immunostained for Chx10 (anti-Chx10 antibody, Exalpha, sheep), which is one of the retinal tissue markers, or Rx (anti-Rx antibody, manufactured by TAKARA, guinea pig), which is one of the retinal tissue markers. These immunostained sections were observed under an inverted fluorescence microscope.
The cell aggregates on day 18 after the start of suspension culturing were fixed with 4% para-formaldehyde to produce frozen sections. These frozen sections were immunostained for Chx10 (anti-Chx10 antibody, Exalpha, sheep), which is one of the retinal tissue markers.

[2] = test system: human iPS cells (1231A3 strain); assay: Bright field observation of cell aggregates in suspension culture (aggregate shape, neuroepithelium / neural tissue formation); conditions: for aggregate growth and neuroepithelium formation (bright field): Example 7, SAG 30 nM, PMA 0.2 μM or human recombinant Shh 300 ng/ml day 0, BMP4 1.5 nM day 3
Protocol: The above subconfluent human iPS cells were treated with a cell dispersion solution by using TrypLE Select (Life Technologies), and further dispersed into single cells by a pipetting operation. Thereafter, the above human iPS cells dispersed into single cells were suspended in 100 μl of a serum-free medium in a non-cell-adhesive 96 well culture plate (PrimeSurface 96V-bottom plate, SUMITOMO BAKELITE) at 1.2×10^4 cells per well, and subjected to suspension culturing at 37° C., 5% CO2. As a serum-free medium (gfCDM+KSR) therefor, a 1:1 mixture of F-12 medium and IMDM medium supplemented with 10% KSR, 450 μM 1-monothioglycerol, 1× Chemically defined lipid concentrate was used. At the start of the suspension culturing (on day 0 after the start of suspension culturing, step 2 start), Y27632 (final concentration 20 μM) was added to the above serum-free medium. By day 2 after the start of suspension culturing, cell aggregates were formed (step 2 completed, and step 3 start). On day 3 after the start of suspension culturing, a serum-free medium (50 μl) free of Y27632 was added.
On day 6 after the start of suspension culturing, a half amount of the medium was changed with a medium free of Y27632 and containing or not containing human recombinant BMP4 (manufactured by R&D) to adjust the final concentration of exogenous human recombinant BMP4 to 1.5 nM (55 ng/ml, FIG. 1B) or to give a medium free of exogenous human recombinant BMP4 (FIG. 1A). As the half-medium exchange operation, a half volume of the medium in the culture vessel, namely 75 μl, was discarded, the above fresh serum-free medium (75 μl) was added to adjust the total medium amount to 150 μl. Thereafter, a half amount of the medium was changed with the above serum-free medium free of Y27632 and human recombinant BMP4 once per 2-4 days. […]
The thus-prepared subconfluent human iPS cells were treated with a cell dispersion solution by using TrypLE Select (Life Technologies), and further dispersed into single cells by a pipetting operation. Thereafter, the above human iPS cells dispersed into single cells were suspended in 100 μl of a serum-free medium in a non-cell-adhesive 96 well culture plate (PrimeSurface 96V-bottom plate, SUMITOMO BAKELITE) at 1.2×10^4 cells per well, and subjected to suspension culturing at 37° C., 5% CO2. As a serum-free medium (gfCDM+KSR) therefor, a 1:1 mixture of F-12 medium and IMDM medium supplemented with 10% KSR, 450 μM 1-monothioglycerol, 1× Chemically defined lipid concentrate was used. […] By day 2 after the start of suspension culturing, cell aggregates were formed (step 2 completed, step 3 start). On day 3 after the start of suspension culturing, a serum-free medium (50 μl) free of Y27632 and SAG was added. On day 6 after the start of suspension culturing, a half amount of the medium was changed with a medium free of Y27632 and containing or not containing human recombinant BMP4 (manufactured by R&D) to adjust the final concentration of exogenous human recombinant BMP4 to 1.5 nM (55 ng/ml, FIG. 1D) or to give a medium free of exogenous human recombinant BMP4 (FIG. 1C). As the half-medium exchange operation, a half volume of the medium in the culture vessel, namely 75 μl, was discarded, the above fresh serum-free medium (75 μl) was added to adjust the total medium amount to 150 μl. Thereafter, a half amount of the medium was changed with the above serum-free medium free of Y27632, SAG and human recombinant BMP4 once per 2-4 days. […]
The thus-prepared subconfluent human iPS cells were treated with the cell dispersion solution by using TrypLE Select (Life Technologies), further dispersed into single cells by pipetting operation, and the above human iPS cells dispersed into single cells were suspended in 100 μl of a serum-free medium at 1.2×10^4 cells per well of a non-cell-adhesive 96-well culture plate (PrimeSurface 96V-bottom plate, manufactured by SUMITOMO BAKELITE). Thereafter, the cells were subjected to suspension culturing at 37° C., 5% CO2. […]

[3] = test system: human iPS cells (201B7 strain); assay: Bright field observation of cell aggregates in suspension culture (neuroepithelium formation); conditions: Example 6; StemFit; SAG 30 nM, Purmorphamine 0.2 μM or human recombinant Shh 50 ng/ml day 0; BMP4 1.5 nM day 3; day 18
Protocol: The thus-prepared subconfluent human iPS cells were treated with the cell dispersion solution by using TrypLE Select (manufactured by Life Technologies), further dispersed into single cells by pipetting operation, and the above human iPS cells dispersed into single cells were suspended in 100 μl of a serum-free medium at 1.2×10^4 cells per well of a non-cell-adhesive 96-well culture plate (PrimeSurface 96V-bottom plate, SUMITOMO BAKELITE). Thereafter, the cells were subjected to suspension culturing at 37° C., 5% CO2. As the serum-free medium (gfCDM+KSR) therefor, a serum-free medium which is a 1:1 mixture of F-12 medium and IMDM medium supplemented with 10% KSR, 450 μM 1-monothioglycerol, 1× Chemically defined lipid concentrate was used. At the time of the start of suspension culturing (day 0 after the start of suspension culturing, start of step 2), a serum-free medium supplemented with SAG (final concentration […]) as a Shh signal transduction pathway activating substance and Y27632 (20 μM) was used (FIG. 5A-D). By day 2 after the start of suspension culturing, cell aggregates were formed. On day 3 after the start of suspension culturing, a serum-free medium (50 μl) free of Y27632 and SAG was added. […] The thus-prepared cell aggregates were subjected to bright field observation under an inverted microscope (BIOREVO manufactured by KEYENCE) on day 18 after the start of suspension culturing.
The thus-prepared subconfluent human iPS cells were treated with the cell dispersion solution by using TrypLE Select (manufactured by Life Technologies), further dispersed into single cells by pipetting operation, and the above human iPS cells dispersed into single cells were suspended in 100 μl of a serum-free medium at 1.0×10^4 cells per well of a non-cell-adhesive 96-well culture plate (SUMILON SPHEROID V-bottom plate PrimeSurface 96V-bottom plate, SUMITOMO BAKELITE). Thereafter, the cells were subjected to suspension culturing at 37° C., 5% CO2. As the serum-free medium (gfCDM+KSR) therefor, a serum-free medium which is a 1:1 mixture of F-12 medium and IMDM medium supplemented with 10% KSR, 450 μM 1-monothioglycerol, 1× Chemically defined lipid concentrate was used. At the time of the start of suspension culturing (day 0 after the start of suspension culturing, start of step 2), the above serum-free medium supplemented with Y27632 (final concentration 20 μM) and further supplemented with SAG (final concentration 30 nM), Purmorphamine (manufactured by Wako, final concentration 0.2 μM), or human recombinant Shh (manufactured by R&D, Recombinant N-Terminus, final concentration 50 ng/ml) as a Shh signal transduction pathway activating substance was used (FIG. 8). On day 2 after the start of suspension culturing, a cell aggregates were formed. […]

[4] = Comparative Example 1, StemFit, no SAG, BMP4 1.5 nM on day 6, observed day 19
[5] = Example 2 Condition 2, Essential 8, no SAG, BMP4 1.5 nM day 6, day 18

Row | Molecule | proportion of Chx10-positive cells in the total cells ([1]; PMA 0.2 μM day 0) | aggregate growth and neuroepithelium formation (bright field) ([2]; StemFit, day 18) | neuroepithelium formation (bright field) [3] | presence of Chx10-positive cells in the cell aggregate ([1]; SAG 30 nM or Shh 300 ng/ml day 0) | cell aggregates collapsed [2, 4] | neural tissue formation efficiency [2, 4] | cell aggregates collapsed [2, 5] | formation efficiency of neural tissue [2, 5]
1 | c1ccc2c(Oc3nc(Nc4ccc(N5CCOCC5)cc4)c4ncn(C5CCCCC5)c4n3)cccc2c1 [PMA, 9-cyclohexyl-N-[4-(4-morpholinyl)phenyl]-2-(l-naphthalenyloxy)-9H-purin-6-amine] | not more than 60% | cell aggregates grew and neuroepithelium was formed | neuroepithelium was formed |  |  |  |  | 
2 | Shh: human recombinant Shh (manufactured by R&D, Recombinant N-Terminus), Sonic hedgehog signal transduction pathway activating substance |  | cell aggregates grew and neuroepithelium was formed | neuroepithelium was formed | contained Chx10-positive cells |  |  |  | 
3 | B1 |  |  |  |  | not less than 90% | poor | not less than 80% | poor
